“And” between values parts separate entries of the source, which are not always exact repeats. Equal values may be shown once. Toxic doses and inconclusive results are not listed. No stated cut-off is given here; in the data, active means T/C of 150% or more; inactive means T/C below 125%.
Tested on: L1210 leukemia ip in BDF1 mice, survival T/C
Assay: NCI In Vivo Anticancer Drug Screen. Data for tumor model L1210 Leukemia (intraperitoneal) in B6D2F1 (BDF1) mice
Settings: higher = longer survival
Summary of the method: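 Survival endpoint. Drug-treated group vs vehicle group, expressed as T divided by C. Tumor passaged by transplantation.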

Measured: T/C

COc1cccc2c1C(=O)c1c(O)c3c(c(O)c1C2=O)C[C@@](O)(C(C)=O)C[C@@H]3OC1CC(N)C(O)C(C)O1 (stereo partly drawn)
inactive: endpoint: mean survival time, dose: 0.05 mg/kg/injection, schedule: Q01DX009 (ip), vehicle: saline 105 % of control | endpoint: mean survival time, dose: 0.1 mg/kg/injection, schedule: Q01DX015 (ip), vehicle: water 104 % of control | endpoint: mean survival time, dose: 0.1 mg/kg/injection, schedule: Q02DX008 (ip), vehicle: water 97 % of control | endpoint: mean survival time, dose: 0.14 mg/kg/injection, schedule: Q04DX002 (ip), vehicle: saline 104 % of control and 105 % of control | endpoint: mean survival time, dose: 0.14 mg/kg/injection, schedule: Q## X004 (ip), vehicle: water 103 % of control | endpoint: mean survival time, dose: 0.15 mg/kg/injection, schedule: Q02DX008 (ip), vehicle: water 106 % of control | endpoint: mean survival time, dose: 0.25 mg/kg/injection, schedule: Q04DX003 (ip), vehicle: water 104 % of control | endpoint: mean survival time, dose: 0.27 mg/kg/injection, schedule: Q04DX002 (ip), vehicle: saline 94 % of control | endpoint: mean survival time, dose: 0.54 mg/kg/injection, schedule: Q04DX002 (ip), vehicle: saline 100 % of control | endpoint: mean survival time, dose: 1.0 mg/kg/injection, schedule: Q03HX024 (ip), vehicle: water 103 % of control | endpoint: mean survival time, dose: 1.0 mg/kg/injection, schedule: Q04DX005 (ip), vehicle: saline 105 % of control | endpoint: mean survival time, dose: 1.3 mg/kg/injection, schedule: Q02DX005 (ip), vehicle: saline 97 % of control | endpoint: mean survival time, dose: 1.8 mg/kg/injection, schedule: Q## X032 (ip), vehicle: water 95 % of control | endpoint: mean survival time, dose: 2.0 mg/kg/injection, schedule: Q02DX005 (ip), vehicle: saline 102 % of control | endpoint: mean survival time, dose: 2.0 mg/kg/injection, schedule: Q02DX009 (ip), vehicle: saline 102 % of control | endpoint: mean survival time, dose: 2.0 mg/kg/injection, schedule: Q03HX024 (ip), vehicle: water 100 % of control | endpoint: mean survival time, dose: 2.7 mg/kg/injection, schedule: Q## X032 (ip), vehicle: water 100 % of control | endpoint: mean survival time, dose: 3.33 mg/kg/injection, schedule: Q01DX Z (ip), vehicle: saline 105 % of control | endpoint: mean survival time, dose: 3.95 mg/kg/injection, schedule: Q01DX Z (oral), vehicle: saline 101 % of control | endpoint: mean survival time, dose: 4.0 mg/kg/injection, schedule: Q01DX003 (ip), vehicle: saline 103 % of control | endpoint: mean survival time, dose: 4.0 mg/kg/injection, schedule: Q01DX005 (ip), vehicle: saline 102 % of control | endpoint: mean survival time, dose: 4.0 mg/kg/injection, schedule: Q01DX010 (ip), vehicle: saline 92 % of control and 103 % of control | endpoint: mean survival time, dose: 4.0 mg/kg/injection, schedule: Q01DX014 (ip), vehicle: saline 100 % of control | endpoint: mean survival time, dose: 4.0 mg/kg/injection, schedule: Q04DX005 (ip), vehicle: saline 106 % of control | endpoint: mean survival time, dose: 4.0 mg/kg/injection, schedule: Q06HX004 (ip), vehicle: water 102 % of control | endpoint: mean survival time, dose: 4.0 mg/kg/injection, schedule: Q## X Z (ip), vehicle: water 104 % of control | endpoint: mean survival time, dose: 5.0 mg/kg/injection, schedule: Q01DX009 (oral), vehicle: saline 104 % of control | endpoint: mean survival time, dose: 5.0 mg/kg/injection, schedule: Q01DX Z (ip), vehicle: saline 95 % of control | endpoint: mean survival time, dose: 5.92 mg/kg/injection, schedule: Q01DX Z (oral), vehicle: saline 106 % of control | endpoint: mean survival time, dose: 6.0 mg/kg/injection, schedule: Q01DX014 (ip), vehicle: saline 105 % of control | endpoint: mean survival time, dose: 6.25 mg/kg/injection, schedule: Q01DX009 (ip), vehicle: saline 95 % of control | endpoint: mean survival time, dose: 8.0 mg/kg/injection, schedule: Q01DX001 (ip), vehicle: water 98 % of control | endpoint: mean survival time, dose: 8.0 mg/kg/injection, schedule: Q01DX015 (ip), vehicle: saline 103 % of control | endpoint: mean survival time, dose: 8.88 mg/kg/injection, schedule: Q01DX001 (ip), vehicle: saline 105 % of control | endpoint: mean survival time, dose: 8.88 mg/kg/injection, schedule: Q01DX Z (oral), vehicle: saline 100 % of control | endpoint: mean survival time, dose: 9.0 mg/kg/injection, schedule: Q## X032 (ip), vehicle: water 104 % of control | endpoint: mean survival time, dose: 10.0 mg/kg/injection, schedule: Q04DX003 (ip), vehicle: water 104 % of control | endpoint: mean survival time, dose: 12.0 mg/kg/injection, schedule: Q02DX008 (ip), vehicle: saline 102 % of control | endpoint: mean survival time, dose: 12.5 mg/kg/injection, schedule: Q01DX001 (oral), vehicle: water 103 % of control | endpoint: mean survival time, dose: 13.0 mg/kg/injection, schedule: Q## X004 (ip), vehicle: saline 96 % of control | endpoint: mean survival time, dose: 13.3 mg/kg/injection, schedule: Q01DX001 (ip), vehicle: saline 94 % of control and 95 % of control | endpoint: mean survival time, dose: 13.3 mg/kg/injection, schedule: Q01DX Z (oral), vehicle: saline 98 % of control | endpoint: mean survival time, dose: 13.33 mg/kg/injection, schedule: Q#B X Z (oral), vehicle: water 103 % of control | endpoint: mean survival time, dose: 20.0 mg/kg/injection, schedule: Q01DX001 (ip), vehicle: water 95 % of control | endpoint: mean survival time, dose: 20.0 mg/kg/injection, schedule: Q01DX Z (oral), vehicle: saline 106 % of control | endpoint: mean survival time, dose: 25.0 mg/kg/injection, schedule: Q01DX001 (oral), vehicle: water 94 % of control | endpoint: mean survival time, dose: 25.0 mg/kg/injection, schedule: Q04DX002 (ip), vehicle: saline 97 % of control | endpoint: mean survival time, dose: 30.0 mg/kg/injection, schedule: Q01DX001 (ip), vehicle: saline 95 % of control | endpoint: mean survival time, dose: 30.0 mg/kg/injection, schedule: Q01DX Z (oral), vehicle: saline 102 % of control | endpoint: mean survival time, dose: 45.0 mg/kg/injection, schedule: Q01DX Z (oral), vehicle: saline 102 % of control | endpoint: mean survival time, dose: 50.0 mg/kg/injection, schedule: Q01DX001 (oral), vehicle: water 97 % of control | endpoint: mean survival time, dose: 80.0 mg/kg/injection, schedule: Q01DX010 (oral), vehicle: saline 103 % of control | endpoint: mean survival time, dose: 80.0 mg/kg/injection, schedule: Q07DX Z (oral), vehicle: water 97 % of control | endpoint: mean survival time, dose: 100.0 mg/kg/injection, schedule: Q01DX001 (oral), vehicle: water 100 % of control | endpoint: mean survival time, dose: 160.0 mg/kg/injection, schedule: Q07DX Z (oral), vehicle: water 101 % of control | endpoint: median survival time, dose: 0.05 mg/kg/injection, schedule: Q01DX001 (ip), vehicle: saline 100 % of control | endpoint: median survival time, dose: 0.2 mg/kg/injection, schedule: Q01DX001 (ip), vehicle: saline 94 % of control and 100 % of control | endpoint: median survival time, dose: 0.28 mg/kg/injection, schedule: Q03HX008 (ip), vehicle: water 105 % of control | endpoint: median survival time, dose: 0.8 mg/kg/injection, schedule: Q01DX001 (ip), vehicle: saline 100 % of control | endpoint: median survival time, dose: 1.75 mg/kg/injection, schedule: Q04DX003 (ip), vehicle: water 94 % of control | endpoint: median survival time, dose: 1.8 mg/kg/injection, schedule: Q01DX005 (ip), vehicle: water 105 % of control | endpoint: median survival time, dose: 2.0 mg/kg/injection, schedule: Q01DX001 (iv), vehicle: water 99 % of control | endpoint: median survival time, dose: 2.0 mg/kg/injection, schedule: Q01DX005 (ip), vehicle: other 106 % of control | endpoint: median survival time, dose: 2.0 mg/kg/injection, schedule: Q03HX008 (ip), vehicle: water 94 % of control | endpoint: median survival time, dose: 2.6 mg/kg/injection, schedule: Q04DX003 (ip), vehicle: water 105 % of control | endpoint: median survival time, dose: 3.0 mg/kg/injection, schedule: Q01DX005 (ip), vehicle: water 100 % of control | endpoint: median survival time, dose: 3.0 mg/kg/injection, schedule: Q04DX003 (sc), vehicle: water 99 % of control and 100 % of control | endpoint: median survival time, dose: 3.9 mg/kg/injection, schedule: Q01DX001 (ip), vehicle: water 100 % of control | endpoint: median survival time, dose: 3.9 mg/kg/injection, schedule: Q04DX003 (ip), vehicle: water 100 % of control | endpoint: median survival time, dose: 4.0 mg/kg/injection, schedule: Q01DX001 (ip), vehicle: saline 106 % of control | endpoint: median survival time, dose: 4.0 mg/kg/injection, schedule: Q01DX001 (iv), vehicle: water 102 % of control | endpoint: median survival time, dose: 5.0 mg/kg/injection, schedule: Q01DX017 (ip), vehicle: water 105 % of control | endpoint: median survival time, dose: 5.0 mg/kg/injection, schedule: Q04DX003 (ip), vehicle: Klucel (hydroxypropylcellulose) (HPC) 105 % of control | endpoint: median survival time, dose: 5.9 mg/kg/injection, schedule: Q01DX001 (ip), vehicle: water 105 % of control | endpoint: median survival time, dose: 5.9 mg/kg/injection, schedule: Q04DX003 (ip), vehicle: water 100 % of control | endpoint: median survival time, dose: 8.0 mg/kg/injection, schedule: Q01DX001 (iv), vehicle: water 102 % of control | endpoint: median survival time, dose: 8.3 mg/kg/injection, schedule: Q04DX003 (ip), vehicle: Klucel (hydroxypropylcellulose) (HPC) 94 % of control and 97 % of control | endpoint: median survival time, dose: 8.9 mg/kg/injection, schedule: Q01DX001 (ip), vehicle: water 94 % of control | endpoint: median survival time, dose: 10.0 mg/kg/injection, schedule: Q01DX001 (ip), vehicle: water 97 % of control and 100 % of control | endpoint: median survival time, dose: 10.0 mg/kg/injection, schedule: Q04DX003 (ip), vehicle: water 100 % of control | endpoint: median survival time, dose: 13.3 mg/kg/injection, schedule: Q01DX001 (ip), vehicle: water 100 % of control | endpoint: median survival time, dose: 25.0 mg/kg/injection, schedule: Q04DX003 (sc), vehicle: water 100 % of control and 102 % of control | endpoint: median survival time, dose: 39.0 mg/kg/injection, schedule: Q04DX003 (sc), vehicle: water 99 % of control and 100 % of control
